# Source: US6670363B1, “Azole compounds as therapeutic agents for fungal infections” (Ranbaxy Laboratories Limited, priority 2000, dated 2003)
# Tests used:
# A. fumigatus s 1008 = experiment: In vitro MIC, NCCLS M38P broth method (RPMI 1640/MOPS pH7), Aspergillus fumigatus; format: cell-based; settings: A. fumigatus strain 1008
# Cryptococcus neoformans = experiment: In vitro MIC, NCCLS M27A, Cryptococcus neoformans; format: cell-based; set-up: MIC, C. neoformans I: unit not given beside the values; MIC, C. neoformans M 106: unit not given here; settings: for MIC, C. neoformans I: C. neoformans strain I; for MIC, C. neoformans M 106: C. neoformans strain M 106
# Candida = experiment: In vitro MIC, NCCLS M27A, Candida species; format: cell-based; set-up: MIC, Candida albicans 1.549 / MIC, Candida albicans Y-01-19 / MIC, C. krusei 766-1 / MIC, C. krusei Q. C / MIC, Candida tropicalis ATCC / MIC, C. glabrata 90030: unit not given beside the values; MIC, Candida albicans A 26 / MIC, C. parapsilosis Q. C.: unit not given here; settings: for MIC, C. glabrata 90030: C. glabrata strain 90030; for MIC, C. krusei 766-1: C. krusei strain 766-1; for MIC, C. krusei Q. C: C. krusei strain Q. C; for MIC, C. parapsilosis Q. C.: C. parapsilosis strain Q. C.; for MIC, Candida albicans 1.549: Candida albicans strain 1.549; for MIC, Candida albicans A 26: Candida albicans strain A 26; for MIC, Candida albicans Y-01-19: Candida albicans strain Y-01-19
# Histoplasma capsulatum = format: cell-based
# [1] = target: lanosterol 14α—demethylase; settings: target enzyme in the fungus; read-out: IC50 against lanosterol 14α-demethylase; cited from earlier work
# [2] = test system: isolates of Aspergillus species; settings: cited from earlier work
SMILES,"MIC, A. fumigatus 1008 (A. fumigatus s 1008)","MIC, C. neoformans I (Cryptococcus neoformans)","MIC, C. neoformans M 106 (Cryptococcus neoformans)",melting point [°C],"MIC, C. glabrata 90030 (Candida)","MIC, C. krusei 766-1 (Candida)","MIC, C. krusei Q. C (Candida)","MIC, C. parapsilosis Q. C. (Candida)","MIC, Candida albicans 1.549 (Candida)","MIC, Candida albicans A 26 (Candida)","MIC, Candida albicans Y-01-19 (Candida)","MIC, Candida tropicalis ATCC (Candida)","MIC, H. capsulatum (Histoplasma capsulatum) [mg/L]",IC50 [1] [µM],minimum inhibitory concentration (MIC) [2] [mg/L]
"O=c1n(-c2ccc(N3CCN(c4cccc(C(F)(F)F)c4)CC3)cc2)cnn1CC(O)(Cn1cncn1)c1ccc(F)cc1F (stereo not shown) [Compound 51, 2-[2-(2,4-Difluorophenyl)-2-hydroxy-3-(1H-1,2,4-triazol-1-yl)propyl]-4-{4-[4-(3-trifluoromethylphenyl)-1-piperazinyl]phenyl}-3-(2H,4H)-1,2,4-triazolone]",>16,<0.03,<0.03,166 to 168,1.00,1.00,0.25,0.06,0.25,<0.03,0.25,<0.03,< 0.03,,
"O=c1n(-c2ccc(N3CCN(c4ccc(F)cc4F)CC3)cc2)cnn1CC(O)(Cn1cncn1)c1ccc(F)cc1F (stereo not shown) [Compound 52, 2-[2-(2,4-Difluorophenyl)-2-hydroxy-3-(1H-1,2,4-triazol-1-yl)propyl]-4-{4-[4-(2,4-difluorophenyl)-1-piperazinyl]phenyl}-3-(2H,4H)-1,2,4-triazolone]",>16,<0.03,<0.03,157 to 158,1.00,4.00,0.50,<0.03,0.06,<0.03,0.12,<0.03,< 0.03,,
"O=c1n(-c2ccc(N3CCN(c4ccc(F)c(Cl)c4)CC3)cc2)cnn1CC(O)(Cn1cncn1)c1ccc(F)cc1F (stereo not shown) [Compound 53, 2-[2-(2,4-Difluorophenyl)-2-hydroxy-3-(1H-1,2,4-triazol-1-yl)propyl]-4-{4-[4-(3-chloro-4-fluorophenyl)-1-piperazinyl]phenyl}-3-(2H,4H)-1,2,4-triazolone]",4.00,<0.03,<0.03,182 to 185,0.50,0.50,0.12,<0.03,0.06,<0.03,<0.03,<0.03,< 0.03,,
"Cc1ccc(N2CCN(c3ccc(-n4cnn(CC(O)(Cn5cncn5)c5ccc(F)cc5F)c4=O)cc3)CC2)c(C)c1 (stereo not shown) [Compound 54, 2-[2-(2,4-Difluorophenyl)-2-hydroxy-3-(1H-1,2,4-triazol-1-yl)propyl]-4-{4-[4-(2,4-dimethylphenyl)-1-piperazinyl]phenyl}-3-(2H,4H)-1,2,4-triazolone]",2.00,<0.03,<0.03,76 to 77,1.00,0.50,0.12,<0.03,8.00,<0.03,0.12,<0.03,0.06,,
"O=c1n(-c2ccc(N3CCN(c4ccc(F)c(F)c4)CC3)cc2)cnn1CC(O)(Cn1cncn1)c1ccc(F)cc1F (stereo not shown) [Compound 55, 2-[2-(2,4-Difluorophenyl)-2-hydroxy-3-(1H-1,2,4-triazol-1-yl)propyl]-4-{4-[4-(3,4-difluorophenyl)-1-piperazinyl]phenyl}-3-(2H,4H)-1,2,4-triazolone]",>16,<0.03,0.02,117 to 118,0.25,1.00,0.12,<0.03,0.03,<0.03,0.03,<0.03,0.004,,
"Cc1ccc(N2CCN(c3ccc(-n4cnn(CC(O)(Cn5cncn5)c5ccc(F)cc5F)c4=O)cc3)CC2)cc1C (stereo not shown) [Compound 56, 2-[2-(2,4-Difluorophenyl)-2-hydroxy-3-(1H-1,2,4-triazol-1-yl)propyl]-4-{4-[4-(3,4-dimethylphenyl)-1-piperazinyl]phenyl}-3-(2H,4H)-1,2,4-triazolone]",>16,<0.03,0.03,136 to 137,0.25,1.00,0.25,<0.03,0.06,<0.03,0.03,<0.03,0.004,,
"O=c1n(-c2ccc(N3CCN(c4cccc(Cl)c4)CC3)cc2)cnn1CC(O)(Cn1cncn1)c1ccc(F)cc1F (stereo not shown) [Compound 57, 2-[2-(2,4-Difluorophenyl)-2-hydroxy-3-(1H-1,2,4-triazol-1-yl)propyl]-4-{4-[4-(3-chlorophenyl)-1-piperazinyl]phenyl}-3-(2H,4H)-1,2,4-triazolone]",>16,<0.03,<0.03,177 to 178,0.25,0.50,0.25,<0.03,0.25,<0.03,0.12,<0.03,0.06,,
"CCc1ccccc1N1CCN(c2ccc(-n3cnn(CC(O)(Cn4cncn4)c4ccc(F)cc4F)c3=O)cc2)CC1 (stereo not shown) [Compound 60, 2-[2-(2,4-Difluorophenyl)-2-hydroxy-3-(1H-1,2,4-triazol-1-yl)propyl]-4-{4-[4-(2-ethylphenyl)-1-piperazinyl]phenyl}-3-(2H,4H)-1,2,4-triazolone]",>16,<0.03,<0.03,148 to 150,0.50,1.00,0.25,<0.03,>16,<0.03,0.25,<0.03,< 0.03,,
"O=c1n(-c2ccc(N3CCN(c4cc(Cl)cc(Cl)c4)CC3)cc2)cnn1CC(O)(Cn1cncn1)c1ccc(F)cc1F (stereo not shown) [Compound 61, 2-[2-(2,4-Difluorophenyl)-2-hydroxy-3-(1H-1,2,4-triazol-1-yl)propyl]-4-{4-[4-(3,5-dichlorophenyl)-1-piperazinyl]phenyl}-3-(2H,4H)-1,2,4-triazolone]",>16,<0.03,<0.03,222 to 225,0.50,0.50,0.25,<0.03,0.25,<0.03,0.12,<0.03,< 0.03,,
"O=c1n(-c2ccc(N3CCN(c4ccccc4F)CC3)cc2)cnn1CC(O)(Cn1cncn1)c1ccc(F)cc1F (stereo not shown) [Compound 62, 2-[2-(2,4-Difluorophenyl)-2-hydroxy-3-(1H-1,2,4-triazol-1-yl)propyl]-4-{4-[4-(2-fluorophenyl)-1-piperazinyl]phenyl}-3-(2H,4H)-1,2,4-triazolone]",16.00,<0.03,0.12,74 to 76,1.00,2.00,0.50,<0.03,4.00,<0.03,0.50,<0.03,< 0.03,,
"O=c1n(-c2ccc(N3CCN(c4ccc(F)c(F)c4F)CC3)cc2)cnn1CC(O)(Cn1cncn1)c1ccc(F)cc1F (stereo not shown) [Compound 63, 2-[2-(2,4-Difluorophenyl)-2-hydroxy-3-(1H-1,2,4-triazol-1-yl)propyl]-4-{4-[4-(2,3,4-trifluorophenyl)-1-piperazinyl]phenyl}-3-(2H,4H)-1,2,4-triazolone]",>16,<0.03,<0.03,186 to 187,0.50,8.00,0.25,<0.03,0.06,<0.03,0.12,<0.03,< 0.03,,
OC(Cn1cncn1)(Cn1cncn1)c1ccc(F)cc1F [fluconazole],,,,,,,,,,,,,,4.8,400
